Literature values in patent US20170224756A1, “Antioxidants Against Oxidative Stress During a Stressor Event” (MERIAL INC., priority 2016, published 2017).

Experiments:
gastric lesions = conditions: indomethacin in rats
endothelial dysfunction = conditions: locally administered; human forearms after typhoid vaccination
oxidative stress = conditions: heat-stressed quail

Compound: [Se] [Se/DMSO, selenium]
- enzymatic antioxidants superoxide dismutase, catalase and glutathione peroxidase (gastric lesions): increased
- gastric lesions (gastric lesions): significantly reduced

Compound: O=C1O[C@H]([C@@H](O)CO)C(O)=C1O [ascorbic acid]
- endothelial dysfunction, reduced vascular nitric oxide bioavailability and increased oxidative stress (endothelial dysfunction): partially reversible

Compound: epigallocatechin-3-gallate [EGCG]
- heat stress induced oxidative stress (oxidative stress): alleviates
